Data published in patent US6200962A, “Thionophosphate derivatives, process for their preparation and pharmaceutical compositions containing them” (priority 1994, dated 2001).

How the values were obtained:
[1] = oil(mineral)/water and octanol/water partitioning; format: physicochemical
Description: The basic chemical structure of the compounds of the invention includes the group --P--N=S, which resembles the thiourea --N--C=S core, in which the central carbon atom has been replaced by a phosphorus atom, to give --N--P=S, which is the characteristic functional group the novel compounds of the invention. This functional group is based on a primary amido thionophosphate (AMTP) chemical bond. The specific compounds shown in FIG. 1, which are only representative of the numerous possible compounds, differ in their oil(mineral) /water and octanol/water partitioning: […]

[2] = Toxicity study, i.p. injection; format: in vivo, Sabra mice; conditions: mouse, in vivo, ip, single, Sabra mice
Protocol: (§1) The toxicity of compound B was tested by injecting 75 mg/kg, 150 mg/kg, 300 mg/kg, 500 mg/kg, 700 mg/kg and 1000 mg/kg i.p. to groups of eight Sabra mice. In addition, a repetitive i.p. injection of 75 mg/kg/day over a period of two weeks was conducted on eight mice. The mice were monitored for mortality and for chances in their weight compared to a saline injected control group.
(§2) The toxicity of compound B was tested by injecting 75 mg/kg, 150 mg/kg, 300 mg/kg, 500 mg/kg, 700 mg/kg and 1000 mg/kg i.p. to groups of eight Sabra mice.

[3] = system: Sabra mice; test: Toxicity study, i.p. injection; format: in vivo
Protocol: as §1, §2

[4] = Reaction with hydrogen peroxide followed by 31P NMR
Protocol: ROS reaction with AMTP were recorded by ^31 P NMR spectra. ^31 P spectra were referenced to 1% H3 PO4 in D2 O and used as an external standard.
Two products of oxidation were observed by ^31 P NMR (FIG. 4). One product at 9.106 ppm and the other at -3.556 ppm. The second product indicated another fragmentation in the molecule.
Different reaction rates were recorded by NMR kinetics between hydrogen peroxide and compound B either in a more hydrophilic environment and in a more hydrophobic one (different mixtures of 1,4-dioxane and water) with dielectric constants of 72.63 and 9.58 respectively.

[5] = Hydroxyl radical chemiluminescence method (H2O2, NTA-Fe2+, HRP); conditions: increasing concentrations
Protocol: Chemiluminescence (CL) was measured in mixtures of H2 O2, NTA-Fe^2+ and HRP (Horseradish peroxidase) systems in a LUMAC/3M BIOCONTER M2010 connected to a linear recorder as described [Ginsburg, I. et al. (1993) Inflammation 17:227-243]. The scavenging of hydroxyl radicals was done by various concentrations of AMTP (compound C dissolved in reaction buffer).
where A is the absorbance in the presence of a scavenger S (AMTPs) at a concentration [S] and A0 is the absorbance in the absence of a scavenger KDR =3.1*10^9 (reaction constant between deoxyribose and OH. radical) [Ebert, M., et al. (1965) Pulse Radiolysis, Academic Press, London] and [DR]=18 mM. […] Considering the fast reaction between H2 O2 and Fe^2+ --NTA and the slow reaction rate between AMTP and hydrogen peroxide as monitored in the ^31 P experiments (FIG. 5), the light decay may be exclusively attributed to hydroxyl radical scavenging.

[6] = system: BSA; test: BSA's cystine oxidation by NaOCl (DTNB); conditions: NaOCl 1 mM
Protocol: BSA (0.5 mg/ml) in Imi HEPES buffer pH=7.2(50 mM) was incubated with sodium hypochlorite (1 mM) for 15 min. The protein was dialyzed for 2 h against 2×500 vol of HEPES buffer to remove free sodium hypochlorite. 301 DTNB 0.015 M in water was then added to the protein solution and color was measured at 420 nm. AMTPs were added to the protein sample to protect it against sodium hypochlorite [Hazell and Stocker, ibid.].
BSA's tryptophan oxidation and BSA's cystine oxidation were the models for protein damage by NaOCl (FIG. 11 and FIG. 12 respectively). BSA fluorescence intensity decreased following oxidative stress of NaOCI (1 mM). […] Out of the three AMTP compounds the most lipophilic (A) was best in preventing the damage and provided 94% protection on the protein.

[7] = system: Human skin fibroblasts; test: Chromium release from fibroblasts, killing by streptolysin S and glucose oxidase; format: cell-based
Protocol: Human skin fibroblasts were kindly supplied by the Department for Human Genetics at Hadassa Hospital in Jerusalem. The cells were grown in D-MEM medium supplemented with glutamine, penicillin, and streptomycin and 10% fetal calf serum [Ginsburg, I. et al. (1992) Inflammation 16:519-538]. Radiolabeled cell monolayers were prepared by the addition of 10 μCi/ml of [^51 Cr]NaCrO4 (New England Nuclear) to […] of trypsinized cells grown in 75-ml tissue culture bottles. The cells were then dispensed into 24-well tissue culture plates (Nunc, Roskilde, Denmark) and grown to confluency in a CO2 incubator.
Hydrogen peroxide flux was generated by the addition of glucose oxidase (0.5 units/ml) to the tissue culture media. Streptolysin S (SLS) of Croup A Streptococci (17 hemolytic units/ml) was employed as a membrane damaging agent.
Culture monolayers were treated for 1 h with the agents listed above. The cultures were monitored periodically for changes in cell morphology. To assess cytotoxicity, the supernatant fluids were removed and centrifuged at 2000 rpm for 2 min. The solubilized radioactivity was then determined in a Contron gamma counter. The total radioactivity associated with untreated controls was solubilized by the addition of 1 ml of 1% Triton X-100. (AMTPs influence on SLS hemolytic activity and on glucose oxidase activity was also tested. No influences were observed).
Fibroblasts in culture were exposed to a synergistic killing mechanism (streptolysin S in combination with an oxidant glucose oxidase) in a D-MEM culture medium that contained 1 mg/ml of glucose (about 0.5-1 mM of H2 O2 was produced after 1 hour of incubation at 37° C.). This system caused about 60% chromium released within an hour. […] The positive controls were DMTU and catalase.

CCOP(=S)(NCCO)OCC [Compound B, 2-hydroxyamido diethyithionophosphate]
logP ([1]; octanol/water, read-out: P (octanol/water) (converted)): 0.508 | P (oil/water) ([1]; oil(mineral)/water): 0.25 | LD50 at 720 h [2]: ~700 mg/kg | mortality ([3]; i.p., doses up to 500 mg/kg): No mortality was observed | changes in average weight ([3]; i.p., up to 500 mg/kg, monitoring of 30 days, vs saline control): nor were there any significant changes | mortality or weight differentiation ([3]; repetitive i.p. 75 mg/kg/day, two weeks): did not lead to any mortality or weight differentiation | decomposition by H2O2 ([4]; 5 mM compound, 100 mM H2O2): decomposed by H2 O2 | reaction rate with hydrogen peroxide vs dielectric constant ([4]; 1,4-dioxane/water mixtures, dielectric constants 72.63 and 9.58): much faster in high dielectric constants | decay of light (hydroxyl radical scavenging) [5]: Dose dependent decay of light | protection of BSA's cystines [6]: strong protection | prevention of cell damage, comparative [7]: much more efficient than compound C | toxic effects on the cell ([7]; concentrations of up to 20 mM, compound alone): did not show any toxic effects | protection against cell killing ([7]; concentrations up to 10 mM, 60 min): 50-60%
